pIC50: −log10 of the molar value.
What was measured:
ACSS2 = ACSS2 (Homo sapiens (Human), UniProt Q9NR19); assay: Cellular assay of 14C acetate incorporation into histones (IC50 ACSS2 cellular histone); assay type: cell-based; conditions: HCT-15 cells
How it was run: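 HCT-15 cells preincubated 1 h with compound (0.25% DMSO), then pulsed 3 h with 14C-acetate in full DMEM/10% FBS. Histones acid-extracted (0.2 M HCl, overnight, 4 °C) after Triton lysis in sodium butyrate buffer; incorporated 14C counted by scintillation (CPM) to give IC50.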

CHO-K1 cells = assay: Micronucleus assay (MNT) in vitro; assay type: cell-based; design: key: A: negative, putative negative (micronuclei detected beyond threshold of 60% cyctotoxicity); B: positive; conditions: 24 hrs treatment, 0.2 μM to 100 μM
Protocol: The in vitro MNT assay is performed in CHO-K1 cells due to their stable and well-characterized karyotype, high sensitivity and suitability for a high content imaging approach. They have a basal spontaneous micronucleus frequency of 3-4%.
24 hrs after plating CHO-K1 cells are treated with test compounds for 24 hrs (in duplicates; fixed concentration ranges from 0.2 μM to 100 μM in 2-fold dilution steps). After a medium change cells are incubated for 24 hrs with Cytochalasin B to block cytokinesis and are then fixed and nuclei/micronuclei visualized with a DNA stain. Images are acquired with the Molecular Devices high content imagers IXU or IXM and are analyzed with the dedicated MetaXpress software micronucleus module. Criteria for scoring of micronuclei (MN) are the following: • diameter of the MN should be less than ⅓ of the main nucleus • MN should be separated from or marginally overlap with main nucleus (=no blebs) • MN should have similar staining as the main nucleus
At least 1000 binucleated cells are evaluated per treatment replicate. Mitomycin C is used as reference stimulator of micronucleus formation. Cytotoxicity is evaluated in parallel and defined by comparing total nuclei count in compound-treated samples to neutral control samples treated with vehicle only (1% DMSO) (100% cytotoxicity means all cells are dead or lost).
A test compound is regarded as POSITIVE if generation of micronuclei and exhibition of less than 60% cytotoxicity at the same concentration can be observed.
Compounds are scored only in the soluble concentration range.
Experimental data of the compounds shown in Table 1 in the MNT assay are shown in Table 2 below and classified in the following groups: […]

ACSS2, sequence (Q9NR19 whole entry): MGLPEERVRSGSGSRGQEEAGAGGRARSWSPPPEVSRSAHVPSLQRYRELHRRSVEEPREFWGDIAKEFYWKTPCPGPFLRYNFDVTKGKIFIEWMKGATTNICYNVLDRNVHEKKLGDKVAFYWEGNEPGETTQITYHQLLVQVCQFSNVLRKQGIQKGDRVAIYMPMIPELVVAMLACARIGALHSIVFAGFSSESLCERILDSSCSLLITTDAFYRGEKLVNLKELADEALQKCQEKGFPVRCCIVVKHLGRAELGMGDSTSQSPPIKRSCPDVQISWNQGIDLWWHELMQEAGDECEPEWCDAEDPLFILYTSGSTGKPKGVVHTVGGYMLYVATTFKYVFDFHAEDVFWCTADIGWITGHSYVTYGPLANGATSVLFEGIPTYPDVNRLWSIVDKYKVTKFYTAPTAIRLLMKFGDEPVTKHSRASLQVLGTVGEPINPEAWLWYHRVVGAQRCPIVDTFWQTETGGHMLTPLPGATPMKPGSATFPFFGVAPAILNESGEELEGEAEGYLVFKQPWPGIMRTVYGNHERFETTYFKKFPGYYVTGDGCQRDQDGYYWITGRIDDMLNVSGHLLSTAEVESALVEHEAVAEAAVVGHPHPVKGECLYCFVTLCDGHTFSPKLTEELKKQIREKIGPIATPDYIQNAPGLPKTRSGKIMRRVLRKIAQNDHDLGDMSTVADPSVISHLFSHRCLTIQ

Row | SMILES | pIC50 (ACSS2) | MNT (CHO-K1 cells)
1 | CCn1c(C(O)(c2ccccc2)c2ccccc2)nc2ncc(-c3nnn[nH]3)cc21 [Compound 60, [1-ethyl-6-(1H-1,2,3,4-tetrazol-5-yl)-1H-imidazo[4,5-b]pyridin-2-yl]diphenylmethanol] | 5.00 to 7.00 | A
2 | COc1nc2nc(C(O)(c3ccccc3)c3ccccc3)n(CCO)c2cc1-c1nnn[nH]1 [Compound 34, 2-[2-(hydroxy-diphenylmethyl)-5-methoxy-6-(1H-1,2,3,4-tetrazol-5-yl)-1H-imidazo[4,5-b]pyridin-1-yl]ethan-1-ol] | 5.00 to 7.00 | A
3 | CCc1c(C(O)(c2ccccc2)c2ccccc2)nc2cc(OC)c(-c3nnn[nH]3)cn12 [Compound 2, [3-Ethyl-7-methoxy-6-(1H-tetrazol-5-yl)-imidazo[1,2-a]pyridin-2-yl]-diphenyl-methanol] | 8.00 to 9.00 | A
4 | CCn1c(C(O)(c2ccccc2)c2cccs2)nc2nc(OC)c(-c3nnn[nH]3)cc21 (racemic) [Compound 35, [1-ethyl-5-methoxy-6-(1H-1,2,3,4-tetrazol-5-yl)-1H-imidazo[4,5-b]pyridin-2-yl](phenyl)(thiophen-2-yl)methanol] | 8.00 to 9.00 | A
5 | CCn1c(C(O)(c2ccccc2)c2ccccn2)nc2nc(OC)c(-c3nnn[nH]3)cc21 (racemic) [Compound 50, [1-ethyl-5-methoxy-6-(1H-1,2,3,4-tetrazol-5-yl)-1H-imidazo[4,5-b]pyridin-2-yl](phenyl)(pyridin-2-yl)methanol] | 9.00 to 11.00 | A
6 | CCn1c(C(O)(c2ccccc2)c2ncccn2)nc2nc(OC)c(-c3nnn[nH]3)cc21 (racemic) [Compound 37, [1-ethyl-5-methoxy-6-(1H-1,2,3,4-tetrazol-5-yl)-1H-imidazo[4,5-b]pyridin-2-yl](phenyl)(pyrimidin-2-yl)methanol] | 8.00 to 9.00 | A
7 | CCc1c(C(O)(c2ccccc2)c2ccccc2)nn2cc(Cl)c(-c3nnn[nH]3)cc12 [Compound 21, [6-Chloro-3-ethyl-5-(1H-tetrazol-5-yl)-pyrazolo[1,5-a]pyridin-2-yl]-diphenyl-methanol] | 7.00 to 8.00 | A
8 | CCn1c(C(O)(c2ccccc2F)c2ccccc2F)nc2nc(OC)c(-c3nnn[nH]3)cc21 [Compound 57, [1-ethyl-5-methoxy-6-(1H-1,2,3,4-tetrazol-5-yl)-1H-imidazo[4,5-b]pyridin-2-yl]bis(2-fluorophenyl)methanol] | 8.00 to 9.00 | A
9 | CCc1c(C(O)(c2ccccc2)c2ccccc2)nn2cc(OC)c(-c3nnn[nH]3)cc12 [Compound 22, [3-Ethyl-6-methoxy-5-(1H-tetrazol-5-yl)-pyrazolo[1,5-a]pyridin-2-yl]-diphenyl-methanol] | 8.00 to 9.00 | A
10 | CCn1c(C(O)(c2ccccc2)c2ccccc2)nc2ccc(C(=O)NC[C@@H](C)O)cc21 [Reference Compound, 3-Ethyl-2-[hydroxy(diphenyl)methyl]-N-[(2R)-2-hydroxypropyl]benzimidazole-5-carboxamide, reference compound] | 9.00 to 11.00 | B
11 | CCc1c(C(O)(c2ccccc2)c2ccccn2)nc2cc(OC)c(-c3nnn[nH]3)cn12 (single isomer, unassigned) [Compound 11, [3-Ethyl-7-methoxy-6-(1H-tetrazol-5-yl)-imidazo[1,2-a]pyridin-2-yl]-phenyl-pyridin-2-yl-methanol] | 7.00 to 8.00 | A
12 | CCc1c(C(O)(c2ccccc2F)c2ccccc2F)nc2cc(Cl)c(-c3nnn[nH]3)cn12 [Compound 5, [7-Chloro-3-ethyl-6-(1H-tetrazol-5-yl)-imidazo[1,2-a]pyridin-2-yl]-bis-(2-fluoro-phenyl)-methanol] | 5.00 to 7.00 | A
13 | CCn1c(C(O)(c2ccccc2)c2ccccn2)nc2nc(OC)c(-c3nnn[nH]3)cc21 (single isomer, unassigned) [Compound 40, [1-ethyl-5-methoxy-6-(1H-1,2,3,4-tetrazol-5-yl)-1H-imidazo[4,5-b]pyridin-2-yl](phenyl)(pyridin-2-yl)methanol] | 9.00 to 11.00 | A
14 | CCc1c(C(O)(c2ccccc2)c2ccccc2)nc2cc(Cl)c(-c3nnn[nH]3)cn12 [Compound 9, [7-Chloro-3-ethyl-6-(1H-tetrazol-5-yl)-imidazo[1,2-a]pyridin-2-yl]-diphenyl-methanol] | 5.00 to 7.00 | A
15 | CCn1c(C(O)(c2ccccc2F)c2ccccc2F)nc2nc(C)c(-c3nnn[nH]3)cc21 [Compound 59, [1-ethyl-5-methyl-6-(1H-1,2,3,4-tetrazol-5-yl)-1H-imidazo[4,5-b]pyridin-2-yl]bis(2-fluorophenyl)methanol] | 5.00 to 7.00 | A
16 | CCn1c(C(O)(c2ccccc2)c2ccccc2)nc2nc(OC)c(-c3nnn[nH]3)cc21 [Compound 58, [1-ethyl-5-methoxy-6-(1H-1,2,3,4-tetrazol-5-yl)-1H-imidazo[4,5-b]pyridin-2-yl]diphenylmethanol] | 9.00 to 11.00 | A
17 | CCn1c(C(O)(c2cccs2)c2cccs2)nc2nc(OC)c(-c3nnn[nH]3)cc21 [Compound 38, [1-ethyl-5-methoxy-6-(1H-1,2,3,4-tetrazol-5-yl)-1H-imidazo[4,5-b]pyridin-2-yl]bis(thiophen-2-yl)methanol] | 5.00 to 7.00 | A
18 | CCn1c(C(O)(c2ccccc2)c2ccccc2)nc2nc(C)c(-c3nnn[nH]3)cc21 [Compound 62, [1-ethyl-5-methyl-6-(1H-1,2,3,4-tetrazol-5-yl)-1H-imidazo[4,5-b]pyridin-2-yl]diphenylmethanol] | 5.00 to 7.00 | A
19 | CCc1c(C(O)(c2ccccc2)c2ccccc2)nc2ccc(-c3nnn[nH]3)cn12 [Compound 4, [3-Ethyl-6-(1 H-tetrazol-5-yl)-imidazo[1,2-a]pyridin-2-yl]-diphenyl-methanol] | 5.00 to 7.00 | A
20 | CCc1c(C(O)(c2ccccc2F)c2ccccc2F)nn2cc(OC)c(-c3nnn[nH]3)cc12 [Compound 19, [3-Ethyl-6-methoxy-5-(1H-tetrazol-5-yl)-pyrazolo[1,5-a]pyridin-2-yl]-bis-(2-fluoro-phenyl)-methanol] | 7.00 to 8.00 | A
21 | CCc1c(C(O)(c2ccccc2F)c2ccccc2F)nc2cc(OC)c(-c3nnn[nH]3)cn12 [Compound 6, [3-Ethyl-7-methoxy-6-(1H-tetrazol-5-yl)-imidazo[1,2-a]pyridin-2-yl]-bis-(2-fluoro-phenyl)-methanol] | 8.00 to 9.00 | A
22 | CCn1c(C(O)(c2ccccc2)c2ccccc2)nc2nc(Cl)c(-c3nnn[nH]3)cc21 [Compound 51, [5-chloro-1-ethyl-6-(1H-1,2,3,4-tetrazol-5-yl)-1H-imidazo[4,5-b]pyridin-2-yl]diphenylmethanol] | 7.00 to 8.00 | A
23 | CCc1c(C(O)(c2ccccc2)c2ccccc2)nc2cc(F)c(-c3nnn[nH]3)cn12 [Compound 3, [3-Ethyl-7-fluoro-6-(1H-tetrazol-5-yl)-imidazo[1,2-a]pyridin-2-yl]-diphenyl-methanol] | 5.00 to 7.00 | A

Source: patent US20240009175A9, “TETRAZOLE DERIVATIVES” (Merck Patent GmbH, priority 2020, published 2024)
